Measurements as given in patent publication US9809623B2, “α4β7 peptide monomer and dimer antagonists” (Protagonist Therapeutics, Inc., priority 2014, dated 2017).
Read-outs that look alike come from different tables or passages of the source. Numbered stars: 1 amine (or outer) side, 2 acyl side, 3 side chain; on linkers, the order of the positions; unused ones are H or OH. Bridge positions count the residues as written; N and C are the ends. Square brackets hold non-standard residues; d marks the D form. Peptide text beside a SMILES is read from it. I, II: the chains in the order shown. Phe(3-CONH2) = NC(=O)c1cccc(C[C@H](N)C(=O)O)c1; Phe(4-F) = N[C@@H](Cc1ccc(F)cc1)C(=O)O; 1Nal = N[C@@H](Cc1cccc2ccccc12)C(=O)O; d1Nal = N[C@H](Cc1cccc2ccccc12)C(=O)O; d2Nal = N[C@H](Cc1ccc2ccccc2c1)C(=O)O; Diglycolyl = O=C(COCC(=O)[*:2])[*:1]; NMeR = CN[C@@H](CCCNC(=N)N)C(=O)O; Cit = NC(=O)NCCC[C@H](N)C(=O)O; Pen = CC(C)(S)[C@H](N)C(=O)O

What was measured:
[1] = target: T1, rh integrin α4β7 (Homo sapiens, UniProt P13612+P26010); assay: α4β7-MAdCAM Competition ELISA; assay type: binding; conditions: Table 3-B, Potency (α4β7); range classes; read-out: α4β7 ELISA IC50
T1 construct: purchased R&D Systems 5397-A30
T1 sequence (P13612 34-977 limits assumed): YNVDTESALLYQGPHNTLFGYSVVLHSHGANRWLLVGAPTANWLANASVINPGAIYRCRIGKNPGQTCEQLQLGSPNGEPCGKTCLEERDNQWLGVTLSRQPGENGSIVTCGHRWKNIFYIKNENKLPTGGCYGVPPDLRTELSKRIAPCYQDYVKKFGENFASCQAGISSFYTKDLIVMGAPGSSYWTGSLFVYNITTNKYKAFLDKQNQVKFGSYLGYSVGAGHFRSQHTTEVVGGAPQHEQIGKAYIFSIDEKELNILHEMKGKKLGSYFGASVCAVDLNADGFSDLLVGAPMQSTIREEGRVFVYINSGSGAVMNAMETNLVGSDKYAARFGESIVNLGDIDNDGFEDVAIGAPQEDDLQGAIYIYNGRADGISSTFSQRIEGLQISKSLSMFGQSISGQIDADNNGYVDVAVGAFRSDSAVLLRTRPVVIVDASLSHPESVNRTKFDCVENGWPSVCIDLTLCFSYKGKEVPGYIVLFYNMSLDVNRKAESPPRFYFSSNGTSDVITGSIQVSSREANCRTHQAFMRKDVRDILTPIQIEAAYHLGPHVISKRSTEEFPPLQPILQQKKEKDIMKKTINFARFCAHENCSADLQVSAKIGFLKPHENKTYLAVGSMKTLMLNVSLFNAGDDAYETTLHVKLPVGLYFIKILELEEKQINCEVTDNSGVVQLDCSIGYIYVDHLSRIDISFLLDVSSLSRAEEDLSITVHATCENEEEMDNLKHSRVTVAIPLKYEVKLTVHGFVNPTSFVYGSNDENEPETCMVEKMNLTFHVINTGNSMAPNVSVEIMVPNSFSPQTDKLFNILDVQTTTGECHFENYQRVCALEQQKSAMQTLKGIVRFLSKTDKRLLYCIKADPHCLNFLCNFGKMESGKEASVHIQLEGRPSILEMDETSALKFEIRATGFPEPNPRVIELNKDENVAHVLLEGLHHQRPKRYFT
T1 sequence (P26010 20-723 limits assumed): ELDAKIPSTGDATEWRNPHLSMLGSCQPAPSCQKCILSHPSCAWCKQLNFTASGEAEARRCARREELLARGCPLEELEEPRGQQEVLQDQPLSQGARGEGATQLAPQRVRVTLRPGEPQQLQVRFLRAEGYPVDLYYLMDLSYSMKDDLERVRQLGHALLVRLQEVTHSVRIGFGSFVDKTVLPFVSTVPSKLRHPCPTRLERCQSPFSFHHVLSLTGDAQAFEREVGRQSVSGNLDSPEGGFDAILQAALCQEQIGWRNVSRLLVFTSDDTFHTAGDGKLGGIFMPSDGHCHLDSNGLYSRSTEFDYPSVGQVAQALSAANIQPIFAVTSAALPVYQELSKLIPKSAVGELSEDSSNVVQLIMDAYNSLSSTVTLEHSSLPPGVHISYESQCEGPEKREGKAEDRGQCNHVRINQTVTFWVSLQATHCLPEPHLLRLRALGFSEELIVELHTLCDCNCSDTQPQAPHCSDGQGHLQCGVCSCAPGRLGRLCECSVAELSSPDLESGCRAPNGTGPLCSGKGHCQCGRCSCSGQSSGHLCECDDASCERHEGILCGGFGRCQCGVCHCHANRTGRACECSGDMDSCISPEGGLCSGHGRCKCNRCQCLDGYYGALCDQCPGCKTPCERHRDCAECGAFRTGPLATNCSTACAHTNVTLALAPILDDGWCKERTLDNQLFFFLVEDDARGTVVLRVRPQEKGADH
Description: A nickel coated plate (Pierce #15442) was coated with rh integrin α4β7 (R&D Systems #5397-A30) at 800 ng/well and incubated at room temperature with shaking for 1 hr. The solution was then removed by shaking and blocked with assay buffer (50 mM Tris-HCl pH7.6, 150 mM NaCl, 1 mM MnCl2 or MgCl2, 0.05% Tween-20 and 0.5% BSA) at 250 ul/well. The plate was then incubated at room temperature for 1 hr. Each well was washed 3 times with wash buffer (50 mM Tris-HCl pH7.6, 100 mM NaCl, 1 mM MnCl2 or MgCl2, 0.05% Tween-20). To each well was added 25 ul of a serial dilution (3-fold dilutions in assay buffer) of peptide starting at 20 μM. 25 ul of recombinant human MAdCAM-1 (R&D Systems #6056-MC) was then added to each well at a fixed concentration 20 nM. The final starting peptide concentration was 10 μM, and the final MAdCAM-1 concentration was 10 nM. The plates were then incubated at room temperature for 1 hr to reach binding equilibrium. The wells were then washed three times with wash buffer. 50 ul of mouse anti-human IgG1-HRP (Invitrogen # A10648) diluted in 1:2000 in assay buffer was then added to each well. The wells were incubated at room temperature for 45 min with shaking. The wells were then washed 3 times with wash buffer. 100 ul of 3,3′,5,5′-Tetramethylbenzidine (TMB) were then added to each well and closely observe during development time. The reaction was stopped with 2N H2SO4 and absorbance was read at 450 nm.
TMB is a chromogenic substrate suitable for use in ELISA procedures, which utilize horseradish peroxidase conjugates. This substrate produces a soluble end product that is blue in color and can be read spectrophotometrically at 370 or 655 nm. The reaction maybe stopped with 2 M H2S04, resulting in a yellow solution that is read at 450 nm. Each tablet contains 1 mg of TMB substrate. To prepare TMB Substrate Solution, dissolve one 3,3′,5,5′-tetramethylbenzidine tablet in 1 ml of DMSO and add to 9 ml of 0.05 M Phosphate-Citrate Buffer, pH 5.0. Add 2 μl of fresh 30% hydrogen peroxide (Product No. H 1009) per 10 ml of substrate buffer solution, immediately prior to use.

[2] = Simulated Intestinal Fluid (SIF) Stability Assay; assay type: in vitro ADME, porcine; conditions: pig, pH 6.5, Table 3-B
Description: Studies were carried out in simulated intestinal fluid (SIF) to evaluate intestinal stability of the peptide molecules of the instant invention. To prepare the SIF reagent, blank FASSIF was prepared by dissolving 0.348 g NaOH, 3.954 g sodium phosphate monobasic monohydrate and 6.186 g NaCl in a final volume of 1 liter water (final pH=6.5). To this solution, 24 g porcine pancreatin (Sigma catalog P7545) was added and stirred for 30 minutes (final pancreatin concentration is 2.4%). The solution was filtered through a cheese cloth and a No. 1 Whatman filter, and 10 ml aliquots were stored at −70° C. To run the reaction, a 10 ml aliquot was thawed at 37° C., and 125 ul aliquots were removed and mixed with an equal volume of blank FASSIF. The peptide stock solution (10 mM in 100% DMSO) was diluted 75-fold in blank FASSIF. A 50 μl aliquot of the diluted peptide was combined with 125 μl pancreatin (2.4%) and 125 μl blank FASSIF to yield final concentrations of 1% pancreatin and 22 μM peptide. The reactions were incubated at 37° C., and at various time points 50 μl aliquots were removed and added to 200 μl of quench solution containing 50% acetonitrile, 50% methanol, 5% formic acid, and 1 μg/ml internal standard. The quenched samples were centrifuged at 10,000 rpm for 10 minutes, and the supernatants were analyzed by LCMS/MS. The percent remaining at each time point was calculated based on the peak area response ratio of test to compound to internal standard. Half-lives were calculated by fitting to a first-order exponential decay equation using GraphPad.

[3] = target: α4β7 (Homo sapiens, UniProt P13612+P26010); assay: α4β7-MAdCAM Cell Adhesion Assay (RPMI 8866 human cells); assay type: cell-based; set-up: host or cells: RPMI 8866 human B lymphoblastoid cells; conditions: Table 3-B, Potency (α4β7); range classes; read-out: α4β7 cell (Hu) IC50
Chain of α4β7 (P13612 34-1032): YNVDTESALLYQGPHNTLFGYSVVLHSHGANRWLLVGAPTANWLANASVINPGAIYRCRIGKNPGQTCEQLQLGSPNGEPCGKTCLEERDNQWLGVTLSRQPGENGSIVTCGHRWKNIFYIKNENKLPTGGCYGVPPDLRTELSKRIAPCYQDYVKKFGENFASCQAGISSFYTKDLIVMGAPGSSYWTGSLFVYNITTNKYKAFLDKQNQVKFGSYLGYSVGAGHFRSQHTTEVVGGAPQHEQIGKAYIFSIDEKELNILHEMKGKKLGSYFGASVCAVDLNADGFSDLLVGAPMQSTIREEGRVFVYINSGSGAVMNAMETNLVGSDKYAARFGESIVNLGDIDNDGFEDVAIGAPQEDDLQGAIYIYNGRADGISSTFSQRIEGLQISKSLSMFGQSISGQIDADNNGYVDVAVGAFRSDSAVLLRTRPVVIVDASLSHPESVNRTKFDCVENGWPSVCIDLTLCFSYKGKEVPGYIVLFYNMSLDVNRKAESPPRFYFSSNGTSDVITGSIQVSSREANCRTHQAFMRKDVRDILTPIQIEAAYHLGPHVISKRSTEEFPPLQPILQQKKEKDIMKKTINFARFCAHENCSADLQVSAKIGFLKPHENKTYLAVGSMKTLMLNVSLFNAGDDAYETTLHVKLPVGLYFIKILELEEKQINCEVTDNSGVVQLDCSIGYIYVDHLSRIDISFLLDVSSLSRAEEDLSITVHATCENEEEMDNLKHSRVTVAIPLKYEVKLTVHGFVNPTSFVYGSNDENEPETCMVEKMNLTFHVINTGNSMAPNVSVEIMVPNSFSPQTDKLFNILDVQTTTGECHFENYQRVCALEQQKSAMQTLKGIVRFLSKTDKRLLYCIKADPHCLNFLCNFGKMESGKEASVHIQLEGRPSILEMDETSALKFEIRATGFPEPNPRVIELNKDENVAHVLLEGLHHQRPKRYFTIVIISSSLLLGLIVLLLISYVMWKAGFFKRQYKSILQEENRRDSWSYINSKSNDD
Chain of α4β7 (P26010 20-798): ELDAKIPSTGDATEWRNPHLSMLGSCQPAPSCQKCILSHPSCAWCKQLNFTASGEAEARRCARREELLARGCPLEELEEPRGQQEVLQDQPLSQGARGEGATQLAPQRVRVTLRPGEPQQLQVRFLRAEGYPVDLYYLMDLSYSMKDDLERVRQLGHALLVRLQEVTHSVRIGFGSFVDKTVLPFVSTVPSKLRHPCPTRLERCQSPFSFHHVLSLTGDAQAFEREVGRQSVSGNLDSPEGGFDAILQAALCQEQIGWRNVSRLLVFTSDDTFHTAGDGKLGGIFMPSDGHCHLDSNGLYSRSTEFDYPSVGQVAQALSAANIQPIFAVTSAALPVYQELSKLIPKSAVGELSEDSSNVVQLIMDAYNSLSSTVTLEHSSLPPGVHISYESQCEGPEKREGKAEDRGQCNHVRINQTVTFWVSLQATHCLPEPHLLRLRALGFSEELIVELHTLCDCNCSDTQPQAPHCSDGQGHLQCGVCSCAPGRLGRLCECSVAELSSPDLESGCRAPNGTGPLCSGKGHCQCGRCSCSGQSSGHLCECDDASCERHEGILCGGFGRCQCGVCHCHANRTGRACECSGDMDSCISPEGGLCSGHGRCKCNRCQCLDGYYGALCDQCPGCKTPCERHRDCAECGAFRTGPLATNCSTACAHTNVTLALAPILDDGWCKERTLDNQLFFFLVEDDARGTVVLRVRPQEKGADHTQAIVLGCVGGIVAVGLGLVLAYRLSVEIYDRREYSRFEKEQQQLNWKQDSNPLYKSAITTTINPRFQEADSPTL
How it was run: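 Washed RPMI 8866 cells (200,000/well) in DMEM with 0.1% BSA, 10 mM HEPES pH 7, 1 mM MnCl2 adhered to rh MAdCAM-1/Fc-coated wells with serially diluted peptides, 30-45 min at 37 °C. After three washes, bound cells quantified by MTT, A570, cell-free background subtracted for dose response.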

[4] = simulated intestinal fluid (SIF) with 1% porcine pancreatin, > means experiment was stopped at that time and half life was not reached, read-out: Stabilty SIF t1/2

Row | SMILES | IC50 [1] [nM] | half-life at 22 μM [2, 4] [h] | IC50 [3] [nM] | other results
1 | CC(=O)N[C@@H]1C(=O)N(C)[C@@H](CCCNC(=N)N)C(=O)N[C@@H](CO)C(=O)N[C@@H](CC(=O)O)C(=O)N[C@@H]([C@@H](C)O)C(=O)N[C@@H](CC(C)C)C(=O)N[C@H](C(=O)N[C@@H](Cc2cccc3ccccc23)C(=O)N[C@H](CCC(=O)O)C(=O)N[C@H](CCCCN)C(N)=O)C(C)(C)SSC1(C)C [compound 8] (Ac-[Pen][NMeR]SDTL[Pen][1Nal][dE][dK]-NH2; disulfide 1-7) | 25 to 50 | – | – | –
2 | CC(=O)N[C@@H]1C(=O)N(C)[C@@H](CCCNC(=N)N)C(=O)N[C@@H](CO)C(=O)N[C@@H](CC(=O)O)C(=O)N[C@@H]([C@@H](C)O)C(=O)N[C@@H](CC(C)C)C(=O)N[C@H](C(=O)N[C@H](Cc2cccc3ccccc23)C(=O)N[C@@H](CCC(=O)O)C(=O)N[C@H](CCCCN)C(N)=O)C(C)(C)SSC1(C)C [compound 10] (Ac-[Pen][NMeR]SDTL[Pen][d1Nal]E[dK]-NH2; disulfide 1-7) | 10 to 25 | – | – | –
3 | CC(=O)N[C@@H]1C(=O)N(C)[C@@H](CCCNC(=N)N)C(=O)N[C@@H](CO)C(=O)N[C@@H](CC(=O)O)C(=O)N[C@@H]([C@@H](C)O)C(=O)N[C@@H](CC(C)C)C(=O)N[C@H](C(=O)N[C@H](Cc2ccc3ccccc3c2)C(=O)N[C@@H](CCC(=O)O)C(=O)N[C@H](CCCCN)C(N)=O)C(C)(C)SSC1(C)C [compound 11] (Ac-[Pen][NMeR]SDTL[Pen][d2Nal]E[dK]-NH2; disulfide 1-7) | 25 to 50 | – | – | –
4 | CC(=O)N[C@@H]1C(=O)N(C)[C@@H](CCCNC(=N)N)C(=O)N[C@@H](CO)C(=O)N[C@@H](CC(=O)O)C(=O)N[C@@H]([C@@H](C)O)C(=O)N[C@@H](CC(C)C)C(=O)N[C@H](C(=O)N[C@@H](Cc2c[nH]c3ccccc23)C(=O)N[C@@H](CCCNC(N)=O)C(=O)N[C@H](CCCCNC(=O)COCC(=O)NCCCC[C@@H](NC(=O)[C@H](CCCNC(N)=O)NC(=O)[C@H](Cc2c[nH]c3ccccc23)NC(=O)[C@H]2NC(=O)[C@H](CC(C)C)NC(=O)[C@H]([C@@H](C)O)NC(=O)[C@H](CC(=O)O)NC(=O)[C@H](CO)NC(=O)[C@H](CCCNC(=N)N)N(C)C(=O)[C@@H](NC(C)=O)C(C)(C)SSC2(C)C)C(N)=O)C(N)=O)C(C)(C)SSC1(C)C [compound 84] (I: Ac-[Pen][NMeR]SDTL[Pen]W[Cit][dK]-NH2 / II: Ac-[Pen][NMeR]SDTL[Pen]W[Cit][dK]-NH2; disulfide I:1-I:7, II:1-II:7; linker I:10-II:10 via Diglycolyl) | – | < 0.333 | 10 to 25 | –
5 | CC(=O)N[C@@H]1C(=O)N(C)[C@@H](CCCNC(=N)N)C(=O)N[C@@H](CO)C(=O)N[C@@H](CC(=O)O)C(=O)N[C@@H]([C@@H](C)O)C(=O)N[C@@H](CC(C)C)C(=O)N[C@H](C(=O)N[C@@H](Cc2cccc(C(N)=O)c2)C(=O)N[C@H](CCC(=O)O)C(=O)N[C@H](CCCCNC(=O)COCC(=O)NCCCC[C@@H](NC(=O)[C@@H](CCC(=O)O)NC(=O)[C@H](Cc2cccc(C(N)=O)c2)NC(=O)[C@H]2NC(=O)[C@H](CC(C)C)NC(=O)[C@H]([C@@H](C)O)NC(=O)[C@H](CC(=O)O)NC(=O)[C@H](CO)NC(=O)[C@H](CCCNC(=N)N)N(C)C(=O)[C@@H](NC(C)=O)C(C)(C)SSC2(C)C)C(N)=O)C(N)=O)C(C)(C)SSC1(C)C [compound 99] (I: Ac-[Pen][NMeR]SDTL[Pen][Phe(3-CONH2)][dE][dK]-NH2 / II: Ac-[Pen][NMeR]SDTL[Pen][Phe(3-CONH2)][dE][dK]-NH2; disulfide I:1-I:7, II:1-II:7; linker I:10-II:10 via Diglycolyl) | – | – | 100 to 500 | half-life at 22 μM ([2]; simulated intestinal fluid (SIF) with porcine pancreatin, > means experiment was stopped at that time and half life was not reached, read-out: Stabilty SIF t1/2): > 3 h
6 | CC(=O)N[C@@H]1C(=O)N(C)[C@@H](CCCNC(=N)N)C(=O)N[C@@H](CO)C(=O)N[C@@H](CC(=O)O)C(=O)N[C@@H]([C@@H](C)O)C(=O)N[C@@H](CC(C)C)C(=O)N[C@H](C(=O)N[C@@H](Cc2c[nH]c3ccccc23)C(=O)N[C@H](Cc2c[nH]cn2)C(=O)N[C@H](CCCCNC(=O)COCC(=O)NCCCC[C@@H](NC(=O)[C@@H](Cc2c[nH]cn2)NC(=O)[C@H](Cc2c[nH]c3ccccc23)NC(=O)[C@H]2NC(=O)[C@H](CC(C)C)NC(=O)[C@H]([C@@H](C)O)NC(=O)[C@H](CC(=O)O)NC(=O)[C@H](CO)NC(=O)[C@H](CCCNC(=N)N)N(C)C(=O)[C@@H](NC(C)=O)C(C)(C)SSC2(C)C)C(N)=O)C(N)=O)C(C)(C)SSC1(C)C [compound 104] (I: Ac-[Pen][NMeR]SDTL[Pen]W[dH][dK]-NH2 / II: Ac-[Pen][NMeR]SDTL[Pen]W[dH][dK]-NH2; disulfide I:1-I:7, II:1-II:7; linker I:10-II:10 via Diglycolyl) | – | 0.583 | 100 to 500 | –
7 | CC(=O)N[C@@H]1C(=O)N(C)[C@@H](CCCNC(=N)N)C(=O)N[C@@H](CO)C(=O)N[C@@H](CC(=O)O)C(=O)N[C@@H]([C@@H](C)O)C(=O)N[C@@H](CC(C)C)C(=O)N[C@H](C(=O)N[C@@H](Cc2ccc(F)cc2)C(=O)N[C@H](CCC(=O)O)C(=O)N[C@H](CCCCNC(=O)COCC(=O)NCCCC[C@@H](NC(=O)[C@@H](CCC(=O)O)NC(=O)[C@H](Cc2ccc(F)cc2)NC(=O)[C@H]2NC(=O)[C@H](CC(C)C)NC(=O)[C@H]([C@@H](C)O)NC(=O)[C@H](CC(=O)O)NC(=O)[C@H](CO)NC(=O)[C@H](CCCNC(=N)N)N(C)C(=O)[C@@H](NC(C)=O)C(C)(C)SSC2(C)C)C(N)=O)C(N)=O)C(C)(C)SSC1(C)C [compound 107] (I: Ac-[Pen][NMeR]SDTL[Pen][Phe(4-F)][dE][dK]-NH2 / II: Ac-[Pen][NMeR]SDTL[Pen][Phe(4-F)][dE][dK]-NH2; disulfide I:1-I:7, II:1-II:7; linker I:10-II:10 via Diglycolyl) | – | > 3 | 25 to 50 | –
8 | CC(=O)N[C@@H]1C(=O)N(C)[C@@H](CCCNC(=N)N)C(=O)N[C@@H](CO)C(=O)N[C@@H](CC(=O)O)C(=O)N[C@@H]([C@@H](C)O)C(=O)N[C@@H](CC(C)C)C(=O)N[C@H](C(=O)N[C@@H](Cc2c[nH]c3ccccc23)C(=O)O)C(C)(C)SSC1(C)C [compound 127] (Ac-[Pen][NMeR]SDTL[Pen]W-OH; disulfide 1-7) | – | – | 100 to 500 | half-life at 22 μM ([2]; simulated intestinal fluid (SIF) with 1% porcine pancreatin, alone or in parentheses after >360, read-out: Stabilty SIF t1/2, in hr (converted)): 35 h
9 | CC(=O)N[C@@H]1C(=O)N(C)[C@@H](CCCNC(=N)N)C(=O)N[C@@H](CO)C(=O)N[C@@H](CC(=O)O)C(=O)N[C@@H]([C@@H](C)O)C(=O)N[C@@H](CC(C)C)C(=O)N[C@H](C(=O)N[C@@H](Cc2c[nH]c3ccccc23)C(=O)N[C@@H](CCC(=O)O)C(=O)O)C(C)(C)SSC1(C)C [compound 128] (Ac-[Pen][NMeR]SDTL[Pen]WE-OH; disulfide 1-7) | – | 3 | 50 to 100 | –
